Measurements taken from PMC11901765, “Discovery of N-(2-Acetamidobenzo[d]thiazol-6-yl)-2-phenoxyacetamide Derivatives as Novel Potential BCR-ABL1 Inhibitors Through Structure-Based Virtual Screening” (Molecules, 2025).
Like-named read-outs stand apart in the source and are kept apart here.

Key:
Ba/F3 (BCR-ABL1) cells = test: CCK-8 viability assay, Ba/F3 (BCR-ABL1) cells; format: cell-based; conditions: for Ba/F3 (BCR-ABL1) Inhibition (%): measured at 10 μM; for Ba/F3 (BCR-ABL1) Inhibition (%) / GI50 / IC50: mean ± SD; for GI50: Mus musculus, BaF3, CCK8 kit; for IC50: Table 3
Description: (§1) Cell viability was assessed using the Cell Counting Kit-8 (CCK-8) assay. […] After 72 h of incubation, 10 μL of CCK-8 reagent was added to each well, and the plates were further incubated for 2–4 h. Absorbance was measured at 450 nm using a microplate reader. Dose-response curves were generated and analyzed using GraphPad Prism 8 (version 8.4.3.686).

parental Ba/F3 cells = test: CCK-8 viability assay, parental Ba/F3 cells; format: cell-based; conditions: mean ± SD; for GI50: CCK8 kit; for IC50: Table 3
Description: as §1

[1] = system: Ba/F3 (BCR-ABL^T315I) cells; test: CCK-8 viability assay, Ba/F3 (BCR-ABL^T315I) cells; format: cell-based; conditions: Table 3; mean ± SD
Description: as §1

HL60 = test: CCK-8 viability assay, HL60 cells; format: cell-based
Description: as §1

MV411 = test: CCK-8 viability assay, MV411 cells; format: cell-based
Description: as §1

K562 cells [2] = test: CCK-8 viability assay, K562 cells; format: cell-based; conditions: 72 h; read-out: GI50 (IC50) K562 cells
Description: Cell viability was assessed using the Cell Counting Kit-8 (CCK-8) assay. Cells were seeded in 96-well plates at a density of 10,000 cells per well in RPMI 1640 medium. Test compounds were prepared by serially diluting stock solutions 3-fold in DMSO to generate an eight-point concentration gradient (100 μM to 0.045 μM), followed by addition to the cultured cells. After 72 h of incubation, 10 μL of CCK-8 reagent was added to each well, and the plates were further incubated for 2–4 h. Absorbance was measured at 450 nm using a microplate reader. Dose-response curves were generated and analyzed using GraphPad Prism 8 (version 8.4.3.686).

K562 cells [3] = test: Synergy study with asciminib (CCK-8, SynergyFinder 3.0, ZIP model); format: cell-based
Description: The drug combination effects were quantified as percentage inhibition of cell viability. The experimental data were analyzed using SynergyFinder 3.0, with a four-parameter logistic regression (LL4) model selected for curve fitting and data analysis. The Synergy Score based on the ZIP (Zero Interaction Potency) model is used to evaluate the synergistic effects of drug combinations.

K562 cells [4] = test: Apoptosis assay (Annexin V/PI flow cytometry); conditions: 10m 10 μM, asciminib 5 μM, 48 or 72 h
Description: Cell apoptosis was evaluated through Annexin V and propidium iodide (PI) dual staining using an Annexin V-FITC Apoptosis Detection Kit (Vazyme, #A211-02, Nanjing, China) following the manufacturer’s protocol.

[5] = system: BCR-ABL-dependent signaling (p-ABL1, p-STAT5, p-CRKL) in K562 cells; test: Western blot of BCR-ABL-dependent signaling; format: cell-based; conditions: 3.3 and 10 μM, 1 h
Description: Western blot analysis was conducted following established protocols. K562 cells were treated with varying concentrations of the test compound for 60 min, followed by protein extraction using RIPA buffer. Protein quantification was performed using bicinchoninic acid assay, and 30–60 μg of protein samples were resolved by 10% sodium dodecyl sulfate-polyacrylamide gel electrophoresis before being transferred onto nitrocellulose membranes. Membranes were probed with primary antibodies overnight at 4 °C. Following incubation with horseradish peroxidase (HRP)-conjugated secondary antibodies (Thermo Scientific, Waltham, MA, USA), protein bands were detected using a chemiluminescent HRP substrate (Millipore Corporation, #WBKLS0500, Billerica, MA, USA) and imaged with a Syngene GeneGnome-XRQ-NPC imager (Synoptics, Britain). Quantitative analysis was performed by measuring band intensity using ImageJ (version 1.43) software. The following primary antibodies were used: c-Abl (ABclonal, #A0282, Woburn, MA, USA), phosphor-c-Abl (ABclonal, #AP0001), STAT5 (ABclonal, #A5029), phosphor-STAT5 (ABclonal, #AP0887), CRKL (ABclonal, #A11735), and phospho-CRKL (ABclonal, #AP0824).

[6] = Table 3, mean ± SD, read-out: IC50 HL60
[7] = Table 3, mean ± SD, read-out: IC50 MV411

Q: For “N-(2-Acetamidobenzo[d]thiazol-6-yl)-2-(2-fluorophenoxy)acetamide [Compound 10g]”, which “Ba/F3 (BCR-ABL1) Inhibition (%)” value (Ba/F3 (BCR-ABL1) cells) is on record?
A: 65 ± 3%

Q: How did the GI50 (Ba/F3 (BCR-ABL1) cells) turn out when `CCC(=O)Nc1nc2ccc(NC(=O)COc3ccccc3)cc2s1` [Compound A12] was run?
A: 10.7 ± 2.6 µM

Q: And the GI50 (parental Ba/F3 cells; Mus musculus, BaF3)?
A: > 100 µM

Q: “N-(2-Acetamidobenzo[d]thiazol-6-yl)-2-(4-chlorophenoxy)acetamide [Compound 10l]” was tested. Which “Ba/F3 (BCR-ABL1) Inhibition (%)” value (Ba/F3 (BCR-ABL1) cells) did it give?
A: 71 ± 4%

Q: How did the GI50 (Ba/F3 (BCR-ABL1) cells) turn out when `O=C(COc1ccccc1)Nc1ccc2nc(NC(=O)c3ccccc3)sc2c1` [Compound A13] was run?
A: 19.5 ± 4.7 µM

Q: What about the GI50 (parental Ba/F3 cells; Mus musculus, BaF3) of the same molecule?
A: > 100 µM

Q: What does the source list for `CS(=O)(=O)Nc1nc2ccc(NC(=O)COc3ccccc3)cc2s1` [Compound A14]?
A: GI50 (Ba/F3 (BCR-ABL1) cells): 1.2 ± 0.2 µM; GI50 (parental Ba/F3 cells; Mus musculus, BaF3): 37.6 ± 5.7 µM

Q: With “N-(2-Acetamidobenzo[d]thiazol-6-yl)-2-(naphthalen-2-yloxy)acetamide [Compound 10f]” as the molecule, how does the IC50 [1] read?
A: > 100 µM

Q: What about the IC50 (Ba/F3 (BCR-ABL1) cells) of the same molecule?
A: 2200 ± 500 nM

Q: And the “Ba/F3 (BCR-ABL1) Inhibition (%)” value (Ba/F3 (BCR-ABL1) cells)?
A: 88 ± 2%

Q: What about the IC50 (parental Ba/F3 cells) of the same molecule?
A: > 100 µM

Q: And the IC50 (HL60; [6])?
A: > 100 µM

Q: What about the IC50 (MV411; [7]) of the same molecule?
A: > 100 µM

Q: And the IC50 (K562 cells [2])?
A: 2700 nM

Q: `Cc1ccc(NC(=O)c2ccc(CN3CCN(C)CC3)cc2)cc1Nc1nccc(-c2cccnc2)n1` [Imatinib, imatinib, reference compound] was tested. Which “effect in combination with asciminib (in words)” value (K562 cells [3]) did it give?
A: antagonistic effect

Q: `Cc1ccc(S(=O)(=O)Nc2nc3ccc(NC(=O)COc4ccccc4)cc3s2)cc1` [Compound A15] was tested. Which GI50 (Ba/F3 (BCR-ABL1) cells) did it give?
A: 3.9 ± 0.5 µM

Q: What about the GI50 (parental Ba/F3 cells; Mus musculus, BaF3) of the same molecule?
A: 42.9 ± 10.4 µM

Q: With “N-(2-Acetamidobenzo[d]thiazol-6-yl)-2-(3-fluorophenoxy)acetamide [Compound 10h]” as the molecule, how does the “Ba/F3 (BCR-ABL1) Inhibition (%)” value (Ba/F3 (BCR-ABL1) cells) read?
A: 61 ± 5%

Q: For `O=C(Nc1ccc(OC(F)(F)Cl)cc1)c1cnc(N2CC[C@@H](O)C2)c(-c2cc[nH]n2)c1` [Asciminib, reference compound], which GI50 (parental Ba/F3 cells; Mus musculus, BaF3) is on record?
A: > 100 µM

Q: And the IC50 (parental Ba/F3 cells; Mus musculus, BaF3)?
A: > 100 µM

Q: And the IC50 (HL60; Homo sapiens, HL-60, read-out: IC50 HL60)?
A: > 100 µM

Q: What about the IC50 (MV411; Homo sapiens, MV4-11, read-out: IC50 MV411) of the same molecule?
A: > 100 µM

Q: And the “apoptosis induction (in words)” value (K562 cells [4])?
A: significantly induced apoptosis

Q: Which results are given for `CCC(=O)Nc1nc2ccc(NC(=O)COc3ccc(Cl)cc3)cc2s1` [Compound A8]?
A: inhibition of Ba/F3 (BCR-ABL1) cells (in words) (Ba/F3 (BCR-ABL1) cells; 10 μM): showed inhibition potency; GI50 (Ba/F3 (BCR-ABL1) cells): 6.4 ± 1.6 µM; GI50 (parental Ba/F3 cells; Mus musculus, BaF3): > 100 µM

Q: For “N-(2-Acetamidobenzo[d]thiazol-6-yl)-2-(4-fluorophenoxy)acetamide [Compound 10i]”, which “Ba/F3 (BCR-ABL1) Inhibition (%)” value (Ba/F3 (BCR-ABL1) cells) is on record?
A: 58 ± 2%

Q: Which “Ba/F3 (BCR-ABL1) Inhibition (%)” value (Ba/F3 (BCR-ABL1) cells) does the source give for “N-(2-Acetamidobenzo[d]thiazol-6-yl)-2-(o-tolyloxy)acetamide [Compound 10s]” here?
A: 22 ± 2%

Q: “N-(2-Acetamidobenzo[d]thiazol-6-yl)-2-(3-chlorophenoxy)acetamide [Compound 10k]” was tested. Which “Ba/F3 (BCR-ABL1) Inhibition (%)” value (Ba/F3 (BCR-ABL1) cells) did it give?
A: 60 ± 6%

Q: What does the source list for “N-(2-Acetamidobenzo[d]thiazol-6-yl)-2-(3,4-dichlorophenoxy)acetamide [Compound 10m]”?
A: effect in combination with asciminib (in words) (K562 cells [3]): powerful synergistic activity; IC50 [1]: 25.2 ± 1.1 µM; IC50 (Ba/F3 (BCR-ABL1) cells): 630 ± 100 nM; Ba/F3 (BCR-ABL1) Inhibition (%) (Ba/F3 (BCR-ABL1) cells): 93 ± 5%; IC50 (parental Ba/F3 cells): > 100 µM; IC50 (HL60; [6]): 54.2 ± 5.5 µM; IC50 (MV411; [7]): > 100 µM; apoptosis induction (in words) (K562 cells [4]): significantly induced apoptosis; IC50 (K562 cells [2]): 980 nM; inhibition of BCR-ABL-dependent signaling pathway (in words) [5]: potently inhibited

Q: “N-(2-Acetamidobenzo[d]thiazol-6-yl)-2-(2-chlorophenoxy)acetamide [Compound 10j]” was tested. Which “Ba/F3 (BCR-ABL1) Inhibition (%)” value (Ba/F3 (BCR-ABL1) cells) did it give?
A: 68 ± 2%

Q: For “N-(2-Acetamidobenzo[d]thiazol-6-yl)-2-(m-tolyloxy)acetamide [Compound 10t]”, which “Ba/F3 (BCR-ABL1) Inhibition (%)” value (Ba/F3 (BCR-ABL1) cells) is on record?
A: 28 ± 5%

Q: For “N-(2-Acetamidobenzo[d]thiazol-6-yl)-2-phenoxyacetamide [Compound 10a]”, which “Ba/F3 (BCR-ABL1) Inhibition (%)” value (Ba/F3 (BCR-ABL1) cells) is on record?
A: 52 ± 5%
